The record followed here is ChEMBL document CHEMBL5620355, “Discovery of intracellular self-assembly protein degraders driven by tumor-specific activatable bioorthogonal reaction” (Eur J Med Chem, 2023).

The subject of one test is U-87 MG. Briefly: Induction of apoptosis in human U87 cells assessed as necrotic cells at 5 uM incubated for 48 hrs in presence of 4-(4-(3-(4-chloro-3-(trifluoromethyl)phenyl)ureido)phenoxy)-N-(prop-2-yn-1-yl)picolinamide by Annexin V-FLTC/PI staining based flow cytometry (reference value: 0.60 %). Format: functional, U-87MG ATCC. (In general: Flow cytometry measures light scatter and fluorescence of single cells or particles in a stream.)

The target of test [1] is T1, Ephrin type-B receptor 4 (Homo sapiens) (UniProt P54760).
T1 sequence (whole entry): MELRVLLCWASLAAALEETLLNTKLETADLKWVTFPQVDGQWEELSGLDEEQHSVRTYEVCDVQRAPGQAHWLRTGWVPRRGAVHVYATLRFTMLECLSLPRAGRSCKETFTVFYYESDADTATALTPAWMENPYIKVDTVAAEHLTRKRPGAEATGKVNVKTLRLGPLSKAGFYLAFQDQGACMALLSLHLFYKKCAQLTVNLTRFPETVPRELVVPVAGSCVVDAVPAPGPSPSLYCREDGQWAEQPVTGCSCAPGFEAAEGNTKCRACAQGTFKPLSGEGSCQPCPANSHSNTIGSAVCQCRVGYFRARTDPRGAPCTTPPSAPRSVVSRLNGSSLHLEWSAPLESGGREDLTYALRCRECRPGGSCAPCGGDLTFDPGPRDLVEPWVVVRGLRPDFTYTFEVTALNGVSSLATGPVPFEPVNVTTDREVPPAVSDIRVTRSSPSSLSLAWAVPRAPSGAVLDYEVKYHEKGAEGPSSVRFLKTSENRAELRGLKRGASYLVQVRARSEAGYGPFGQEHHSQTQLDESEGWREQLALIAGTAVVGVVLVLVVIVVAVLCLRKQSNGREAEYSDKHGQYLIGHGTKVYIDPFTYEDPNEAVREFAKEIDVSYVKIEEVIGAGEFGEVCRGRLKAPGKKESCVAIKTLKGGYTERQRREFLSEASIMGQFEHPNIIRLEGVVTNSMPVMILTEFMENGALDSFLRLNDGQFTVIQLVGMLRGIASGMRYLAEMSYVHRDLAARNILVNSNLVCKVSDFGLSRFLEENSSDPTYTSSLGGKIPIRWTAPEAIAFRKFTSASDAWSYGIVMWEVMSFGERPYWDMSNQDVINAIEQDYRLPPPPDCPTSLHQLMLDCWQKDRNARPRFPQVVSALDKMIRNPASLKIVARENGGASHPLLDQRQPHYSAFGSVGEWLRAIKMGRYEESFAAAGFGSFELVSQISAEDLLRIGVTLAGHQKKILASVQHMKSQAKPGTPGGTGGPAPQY
Briefly: Induction of EphB4 degradation in human U87 cells upto 10 uM incubated for 48 hrs by Western blot analysis. Format: cell-based. Background: A western blot detects proteins with antibodies after separation by electrophoresis.

The source made the active and inactive calls. No cut-off for these calls is given here.

For the compound `[N-]=[N+]=NCCCC(=O)Nc1cccc2c1C(=O)N(C1CCC(=O)NC1=O)C2=O` (configuration not stated), in the test with U-87 MG, the Activity amounted to 25.22%. As for `C#CCNC(=O)c1cc(Oc2ccc(NC(=O)Nc3ccc(Cl)c(C(F)(F)F)c3)cc2)ccn1`, the result in test [1] was inactive.
